Measurements taken from patent EP4796530A1 (Biocells (Beijing) Biotech Co., Ltd., priority 2023, dated 2025).
pIC50: −log10 of the molar value.

Tests used:
[1] = Mouse pharmacokinetics after intravenous administration (plasma and brain, LC-MS); assay type: in vivo; settings: C57 mice, intravenous 5 mg/kg; for concentration at 120 min: brain after cardiac perfusion, read-out: brain drug concentration at 120 min; for half-life / AUC: plasma; for AUC: read-out: area under the curve (AUC) from 1 to 120 min
Experimental: C57 mice were administered intravenously, at a dosage concentration of 5 mg/kg in each group. Retro-orbital blood collection was performed on the mice at 1 min, 30 min, 1 h, and 2 h post-dosing. The collected blood was centrifuged at 3000 rpm for 10 min at 4 °C to obtain plasma. Acetonitrile was added at a 1:3 volume ratio of plasma: acetonitrile to precipitate proteins. After centrifugation, the supernatant was collected and filtered. The concentration of the compound was detected using LC-MS (Agilent 1260-G6125, SIM mode). In addition, 2 h after drug injection, the mice were subjected to cardiac perfusion and then their brains were harvested. Following tissue homogenization and centrifugation, the supernatant was collected. Acetonitrile was added at a 1:3 volume ratio of supernatant: acetonitrile to precipitate proteins. After centrifugation, the supernatant was collected and filtered. The concentration of the compound was detected using LC-MS (Agilent 1260-G6125, SIM mode).
(§1) Experimental groups: a vehicle control group, and a dosing group.

[2] = Rat plasma pharmacokinetics after intravenous administration (LC-MS); assay type: in vivo; settings: SD rats, intravenous 2.5 mg/kg; for AUC: read-out: AUC from 1 to 1440 min
Experimental: SD rats were administered intravenously, at a dosage concentration of 2.5 mg/kg in each group. Blood was collected at the time points of 1 min, 30 min, 1 h, 2 h, 4 h, 6 h, and 24 h. The collected blood was centrifuged at 3000 rpm for 10 min at 4 °C to obtain plasma. Acetonitrile was added at a 1:3 volume ratio of plasma: acetonitrile to precipitate proteins. After centrifugation, the supernatant was collected and filtered. The concentration of the compound was detected using LC-MS (Agilent 1260-G6125, SIM mode).
as §1

NLRP3 [3] = biological target: T1, NLRP3 (Mus musculus, UniProt Q8R4B8); experiment: Inhibition curves (IC50) of canonical NLRP3 activation in J774A.1 cells, IL-1β release; assay type: cell-based; parameters: The mouse macrophage cell line J774A.1 was used, and LPS was used as the first signal; host or cells: J774A.1 mouse monocyte-macrophage cell line; settings: J774A.1 cell LPS+ATP activation model
T1 sequence (Q8R4B8 whole entry): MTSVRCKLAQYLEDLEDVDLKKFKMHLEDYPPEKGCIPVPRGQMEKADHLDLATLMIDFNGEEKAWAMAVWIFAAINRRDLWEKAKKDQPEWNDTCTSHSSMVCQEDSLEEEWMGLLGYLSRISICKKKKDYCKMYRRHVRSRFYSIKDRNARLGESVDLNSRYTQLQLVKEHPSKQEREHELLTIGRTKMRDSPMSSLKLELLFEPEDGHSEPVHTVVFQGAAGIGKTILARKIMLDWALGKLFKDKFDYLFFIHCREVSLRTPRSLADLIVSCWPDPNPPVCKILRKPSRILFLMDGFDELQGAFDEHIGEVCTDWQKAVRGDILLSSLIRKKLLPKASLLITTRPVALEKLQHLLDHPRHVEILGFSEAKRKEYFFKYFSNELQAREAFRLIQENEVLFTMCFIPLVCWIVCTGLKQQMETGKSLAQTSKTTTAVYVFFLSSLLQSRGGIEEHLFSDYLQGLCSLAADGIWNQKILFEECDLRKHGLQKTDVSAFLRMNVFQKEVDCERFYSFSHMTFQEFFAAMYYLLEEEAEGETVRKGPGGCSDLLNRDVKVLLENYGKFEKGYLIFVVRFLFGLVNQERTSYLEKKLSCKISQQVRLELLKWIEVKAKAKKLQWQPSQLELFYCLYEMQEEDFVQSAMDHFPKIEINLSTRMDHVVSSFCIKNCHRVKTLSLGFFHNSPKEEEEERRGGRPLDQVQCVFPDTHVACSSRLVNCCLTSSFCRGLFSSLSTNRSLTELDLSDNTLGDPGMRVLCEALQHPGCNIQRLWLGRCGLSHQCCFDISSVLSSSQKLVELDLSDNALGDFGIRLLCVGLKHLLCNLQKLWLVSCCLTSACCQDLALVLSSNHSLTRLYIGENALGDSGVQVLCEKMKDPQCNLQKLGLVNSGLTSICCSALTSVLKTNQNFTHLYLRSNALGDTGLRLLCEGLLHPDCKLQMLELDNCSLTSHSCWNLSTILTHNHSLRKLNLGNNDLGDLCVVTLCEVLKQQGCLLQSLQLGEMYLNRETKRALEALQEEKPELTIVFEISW
Experimental: (§2) J774A.1 cells were plated in a 48-well plate at a density of 1.0×10^6 cells/mL, with 300 µL per well. Subsequently, NLRP3 was activated by LPS+ATP or LPS+Nig. […] ATP was purchased from Sigma, Cat. No.: L2654. Nig was purchased from Shanghai Yuanye Bio-Technology Co., Ltd., Cat. No.: S45490.
Experimental groups: a negative control group, an LPS-alone incubation control group, an LPS+ATP/Nig positive control group, and an example compound experimental group with different concentrations.
After the plated J774A.1 cells adhering to the plate, the culture medium was replaced. For all the groups except the negative control group, the culture medium was completely replaced with cell culture medium containing 1 µg/mL LPS. The negative control group received cell culture medium. Then, all the groups were incubated overnight. 18 h later, the culture medium was replaced again. The culture medium of the example compound experimental group was completely replaced with culture medium containing different concentrations of compounds; while the negative control group, the LPS-alone incubation control group, and the LPS+ATP/Nig positive control group received cell culture medium. 1 h later, the culture mediums of the LPS+ATP/Nig positive control group and the example compound experimental group with different concentrations were completely replaced with cell culture medium containing 5 mM ATP or 10 µM Nig. 1 h later, the cell supernatants were collected for IL-1β detection.
(§3) Therefore, the relative change in the amount of IL-1β release may directly reflect NLRP3 inhibitory effect. The inhibitory effect of the compounds varies with different concentrations, and based on this, an inhibition curve can be constructed, and the inhibitory effects of the compounds were assessed by IC50.

NLRP3 [4] = biological target: T1, NLRP3; experiment: Inhibition of canonical NLRP3 activation (LPS+ATP/Nig) in J774A.1 cells, IL-1β release by ELISA, single concentration; assay type: cell-based; parameters: The mouse macrophage cell line J774A.1 was used, and LPS was used as the first signal; host or cells: J774A.1 mouse monocyte-macrophage cell line; settings: J774.A1, 1 µM compound, LPS + 5 mM ATP or 10 µM Nig, compared with the positive control, read-out: inhibition of IL-1β release
Experimental: as §2, with “using LPS+5 mM ATP (adenosine triphosphate)” for “by LPS+ATP”, “10 µM Nig (nigericin).” for “LPS+Nig.”
Experimental groups: a negative control group, an LPS-alone incubation control group, an LPS+ATP or +Nig positive control group, and an example compound experimental group.
After the plated J774A.1 cells adhering to the plate, the culture medium was replaced. For all the groups except the negative control group, the culture medium was completely replaced with cell culture medium containing 1 µg/mL LPS. The negative control group received cell culture medium. Then, all the groups were incubated overnight. 18 h later, the culture medium was replaced again. The culture medium of the example compound experimental group was completely replaced with cell culture medium containing the compounds; while the negative control group, the LPS-alone incubation control group, and the LPS+ATP/Nig positive control group received cell culture medium. 1 h later, the culture mediums of the LPS+ATP/Nig positive control group and the example compound experimental group were completely replaced with cell culture medium containing 5 mM ATP or 10 µM Nig. 1 h later, the cell supernatants were collected for IL-1β detection.
Therefore, the relative change in the amount of IL-1β release may directly reflect NLRP3 inhibitory effect.

NLRP3 [5] = biological target: T2, NLRP3 (Homo sapiens, UniProt Q96P20); experiment: Inhibition curves (IC50) of canonical NLRP3 activation (LPS+Nig) in THP-1 cells, IL-1β release; assay type: cell-based; parameters: host or cells: THP-1 human acute monocytic leukemia cell line, PMA-differentiated; settings: THP-1 cell LPS+Nig activation model
T2 sequence (Q96P20 whole entry): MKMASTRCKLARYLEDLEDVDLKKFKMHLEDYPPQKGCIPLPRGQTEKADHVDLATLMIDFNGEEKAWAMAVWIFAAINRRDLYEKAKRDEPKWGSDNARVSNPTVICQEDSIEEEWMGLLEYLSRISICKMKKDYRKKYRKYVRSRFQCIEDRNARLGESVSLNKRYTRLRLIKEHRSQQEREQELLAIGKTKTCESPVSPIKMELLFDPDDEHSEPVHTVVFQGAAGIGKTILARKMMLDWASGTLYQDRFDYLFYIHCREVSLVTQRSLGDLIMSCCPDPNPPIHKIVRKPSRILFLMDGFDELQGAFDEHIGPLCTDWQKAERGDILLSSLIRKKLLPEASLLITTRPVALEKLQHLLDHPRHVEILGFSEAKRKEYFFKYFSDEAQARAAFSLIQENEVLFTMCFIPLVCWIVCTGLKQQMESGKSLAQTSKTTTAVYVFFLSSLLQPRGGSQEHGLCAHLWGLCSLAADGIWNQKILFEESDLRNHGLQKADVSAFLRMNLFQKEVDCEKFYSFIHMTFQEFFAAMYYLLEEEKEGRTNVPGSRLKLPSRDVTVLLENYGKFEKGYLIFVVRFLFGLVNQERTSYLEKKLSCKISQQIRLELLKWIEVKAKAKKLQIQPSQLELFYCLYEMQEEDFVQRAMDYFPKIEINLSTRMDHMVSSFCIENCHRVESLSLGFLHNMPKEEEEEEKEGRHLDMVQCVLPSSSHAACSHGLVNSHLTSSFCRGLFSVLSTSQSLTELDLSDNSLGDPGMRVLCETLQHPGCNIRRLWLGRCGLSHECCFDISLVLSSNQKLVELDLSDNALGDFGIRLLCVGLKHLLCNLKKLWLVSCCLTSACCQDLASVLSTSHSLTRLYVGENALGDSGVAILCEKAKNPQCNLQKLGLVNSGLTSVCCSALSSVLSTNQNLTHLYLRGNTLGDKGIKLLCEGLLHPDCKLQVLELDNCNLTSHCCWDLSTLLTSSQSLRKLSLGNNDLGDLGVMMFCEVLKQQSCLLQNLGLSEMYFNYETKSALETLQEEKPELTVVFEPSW
Experimental: Nig was purchased from Shanghai Yuanye Bio-Technology Co., Ltd., Cat. No.: S45490.
The cells were incubated overnight.
as §3

NLRP3 [6] = biological target: T2, NLRP3; experiment: Inhibition curves (IC50) of canonical NLRP3 activation in healthy human whole blood, IL-1β release; assay type: cell-based; settings: LPS+5 µM Nig canonical activation model
Experimental: 10 mL of human whole blood was collected intravenously aseptically, and plated into a 96-well plate, with 198 µL per well. Then, 2 µL of 100× gradient dilutions of the example compounds at specified concentrations were added, immediately followed by the addition of 10 µL of 21 µg/mL LPS gradient dilution. 3 h later, nigericin with a working concentration of 5 µM or 1 mM ATP was added. After stimulation for 1 h, the whole blood was collected and centrifuged to collect the supernatant. IL-1β in the sample supernatant was detected by ELISA method.
Experimental groups: a negative control group, an LPS-alone incubation control group, an LPS+Nig/ATP positive control group, and a 1 µM example compound experimental group.
10 mL of human whole blood was collected intravenously aseptically. The anticoagulant heparin sodium was added preemptively into a 50 mL centrifuge tube. The collected whole blood was directly plated in a 96-well plate, with 198 µL per well. […] IL-1β in the sample supernatant was detected by ELISA method.
Therefore, the relative change in the amount of IL-1β release may directly reflect NLRP3 inhibitory effect. The inhibitory effect of the compounds varies with different concentrations, and based on this, an inhibition curve can be constructed, and the inhibitory effect of the compounds were assessed by IC50.

Compound	concentration at 120 min [1]	half-life [1]	AUC [1]	half-life [2]	AUC [2]	pIC50 (NLRP3 [3])	inhibition at 1 µM (NLRP3 [4])	pIC50 (NLRP3 [5])	pIC50 (NLRP3 [6])
CN(C)Cc1cc(S(=O)(=O)NC(=O)Nc2c3c(cc4c2CCC4)CCC3)ccc1O [Example 5, 3-((dimethylamino)methyl)-N-((1,2,3,5,6,7-hexahydro-s-indacen-4-yl)carbamoyl)-4-hydroxybenzenesulfonamide]	3870 ng/mL	2.3 h	67400 ng·h/mL	1.93 h	33900 ng·h/mL	6.65	> 80%	–	–
CN(C)Cc1cccc(S(=O)(=O)NC(=O)Nc2c3c(cc4c2CCC4)CCC3)c1N [Example 19, 2-amino-3-((dimethylamino)methyl)-N-((1,2,3,5,6,7-hexahydro-s-indacen-4-yl)carbamoyl)benzenesulfonamide]	242 ng/mL	2.32 h	14700 ng·h/mL	3.85 h	56500 ng·h/mL	6.94	> 80%	6.56	5.90
COc1ccc(S(=O)(=O)NC(=O)Nc2c3c(cc4c2CCC4)CCC3)cc1CN(C)C [Example 3, 3-((dimethylamino)methyl)-N-((1,2,3,5,6,7-hexahydro-s-indacen-4-yl)carbamoyl)-4-methoxybenzenesulfonamide]	35500 ng/mL	1.05 h	257000 ng·h/mL	–	–	6.69	> 80%	–	–
